The source of these data is PubChem BioAssay (NCI).

Some test systems named below: M19-MEL melanoma; SNB-75 CNS; EKVX NSCLC; ACHN renal; A498 renal; LOX IMVI melanoma; CAKI-1 renal; DU-145 prostate; BT-549 breast.
Experiment in all cases: inhibition of tumour cell growth, NCI panel, 48 h

SMILES strings stand for the structures.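 Where inhibition never reached the appropriate level, the endpoint shown equals the highest concentration tested. Otherwise, values were interpolated linearly from a five-concentration, 48-hour dose response in 96-well plates. Here, GI50 denotes the concentration required for 50% inhibition of growth. TGI: total growth inhibition.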

Turning to `CC(C)c1ccc(C(c2ccc(OCC(=O)O)cc2)c2ccc(C(C)C)cc(=O)c2O)c(O)c(=O)c1`, the TGI in the assay on M19-MEL melanoma is 69.9 µM; with SNB-75 CNS, 16.2 µM; in the assay on EKVX NSCLC it was over 100 µM; in the assay on ACHN renal, 28 µM; in the assay on A498 renal, 69.5 µM; with LOX IMVI melanoma it was 14.8 µM. In the assay with CAKI-1 renal, this compound displayed a TGI of 18.1 µM.
Turning to `CCCCOC(=O)NC(=O)c1cn(C2CCCCC2)c(=O)[nH]c1=O`, the TGI in the assay on M19-MEL melanoma was over 100 µM; with EKVX NSCLC, over 100 µM; in the assay with ACHN renal, 67.3 µM; in the assay with A498 renal it was 49 µM; in the assay on LOX IMVI melanoma, over 100 µM.
For the compound `CC(=O)O.[Au].c1ccc([PH+](c2ccccc2)c2ccccc2)cc1`, the GI50 was 2.67 µM with M19-MEL melanoma; 8.1 µM in the assay with SNB-75 CNS; 3.61 µM with EKVX NSCLC; 2.86 µM with ACHN renal; 2.54 µM in the assay on LOX IMVI melanoma; 2.27 µM in the assay on CAKI-1 renal. In addition, the TGI in the assay with M19-MEL melanoma is 15.6 µM; in the assay with SNB-75 CNS it was 20.5 µM; in the assay with EKVX NSCLC it was 8.56 µM; in the assay with ACHN renal, 8.53 µM; with LOX IMVI melanoma, 7.98 µM; with CAKI-1 renal, 5.35 µM.
Regarding `O=C(Nc1ccc(Cl)cc1Cl)C(=O)C(C(=O)c1ccncc1)C1OC(=O)c2ccccc21` (stereo unspecified), the TGI in the assay on M19-MEL melanoma, with SNB-75 CNS, with EKVX NSCLC, in the assay on ACHN renal, in the assay with A498 renal and in the assay with LOX IMVI melanoma was over 100 µM throughout. In the assay on CAKI-1 renal, this compound showed a TGI of over 100 µM.
For the compound `CC(C)c1cc2c(O)c(c1)Cc1cc(C(C)C)cc(c1O)Cc1cc(C(C)C)cc(c1O)Cc1cc(C(C)C)cc(c1O)C2`, the TGI in the assay with M19-MEL melanoma, in the assay with SNB-75 CNS, in the assay on EKVX NSCLC, with A498 renal, with LOX IMVI melanoma and in the assay on CAKI-1 renal was over 100 µM throughout.
For the compound `CC(=O)N1C/C(=C\c2ccc(N(C)C)cc2)C(=O)/C(=C/c2ccc(N(C)C)cc2)C1`, the TGI in the assay with M19-MEL melanoma is over 100 µM; with SNB-75 CNS, 49.4 µM; with ACHN renal, over 100 µM; in the assay on A498 renal, over 100 µM; in the assay on LOX IMVI melanoma, over 100 µM; in the assay with CAKI-1 renal it was over 100 µM.
Regarding `COC(=O)c1cc(C)c(C)c2c1NC(=O)CNC2=O`, the TGI in the assay on M19-MEL melanoma, with SNB-75 CNS, in the assay with EKVX NSCLC, in the assay on ACHN renal, in the assay on A498 renal and in the assay with CAKI-1 renal was over 100 µM throughout.
On to `COC(C(O)c1ccc2c(c1)OCO2)P(=O)(c1ccccc1)c1ccccc1` (stereo unspecified), for which the TGI with M19-MEL melanoma, with SNB-75 CNS, in the assay with EKVX NSCLC, in the assay with ACHN renal, in the assay with A498 renal and in the assay on CAKI-1 renal was over 100 µM each time.
In the case of `Fc1ccc(C2SCc3nc4ccccc4n32)cc1Cl` (stereo unspecified), the TGI is 37.1 µM with M19-MEL melanoma; 92.8 µM in the assay with EKVX NSCLC; over 100 µM with ACHN renal; over 100 µM in the assay with A498 renal; 40.3 µM with LOX IMVI melanoma; 38.4 µM in the assay with CAKI-1 renal.
Take `Cc1ccc(-c2cc(=O)c3cc(C)c(C)c(C(=O)O)c3o2)cc1C`: the TGI is over 100 µM in the assay on M19-MEL melanoma; over 100 µM in the assay on SNB-75 CNS; over 100 µM with EKVX NSCLC; over 100 µM in the assay on ACHN renal; over 100 µM with LOX IMVI melanoma; 89.5 µM in the assay on CAKI-1 renal.
With `CCc1ccc(Nc2ccc([N+](=O)[O-])cc2[N+](=O)[O-])cc1`, the TGI in the assay on M19-MEL melanoma was over 100 µM; in the assay on SNB-75 CNS, over 100 µM; with EKVX NSCLC, over 100 µM; in the assay on ACHN renal, over 100 µM; in the assay with A498 renal, 66.9 µM; with CAKI-1 renal, over 100 µM.
On to `O=C(/C=C/c1c(O)ccc2ccccc12)c1ccccc1`, for which the TGI in the assay with M19-MEL melanoma was over 100 µM; with SNB-75 CNS, 4.52 µM; in the assay with EKVX NSCLC it was over 100 µM; in the assay on ACHN renal it was over 100 µM; in the assay on A498 renal, over 100 µM; with LOX IMVI melanoma, 44.9 µM. The compound also yielded a TGI in the assay on CAKI-1 renal of over 100 µM.
Regarding `CCN(CC)CCCC(C)Nc1cnc(C(=O)Nc2cccc3ccc(OC)nc23)cn1` (stereo unspecified), the GI50 in the assay on DU-145 prostate was 4.24 µM; with BT-549 breast, 1.95 µM; in the assay with SNB-75 CNS, 10.6 µM; in the assay on EKVX NSCLC, 2.52 µM; in the assay with ACHN renal, 1.83 µM; in the assay with A498 renal it was 4.52 µM. For the same compound, the GI50 in the assay on LOX IMVI melanoma and with CAKI-1 renal was 1.77 µM throughout. Also, the TGI is 15.3 µM in the assay with DU-145 prostate; 4.47 µM with BT-549 breast; 22.8 µM in the assay with SNB-75 CNS; 8.36 µM in the assay on EKVX NSCLC; 3.48 µM in the assay with ACHN renal; 18 µM with A498 renal. Besides, the figures for the TGI in the assay on LOX IMVI melanoma and with CAKI-1 renal were 3.34 µM and 3.76 µM, respectively.
Turning to `Cc1[nH]c2ccccc2c1C1Cc2ccccc2N1C(=O)/C(Cl)=C/c1ccccc1` (stereo unspecified), the TGI in the assay with M19-MEL melanoma is over 100 µM; in the assay with SNB-75 CNS, 99.6 µM; with EKVX NSCLC, over 100 µM; with ACHN renal it was over 100 µM; in the assay on A498 renal, over 100 µM; with LOX IMVI melanoma, over 100 µM. Moreover, the TGI with CAKI-1 renal is over 100 µM.
Regarding `C/C=C1/C(=C/c2[nH]c(/C=c3\[nH]/c(=C/C4=NC(=O)C(CC)=C4C)c(C)c3CCC(=O)O)c(CCC(=O)O)c2C)NC(=O)C1C` (stereo unspecified), the GI50 in the assay with M19-MEL melanoma, with SNB-75 CNS, in the assay with EKVX NSCLC, in the assay on ACHN renal, in the assay with A498 renal and in the assay with LOX IMVI melanoma was over 150 µg/mL in each case. In addition, the TGI with M19-MEL melanoma, in the assay with SNB-75 CNS, in the assay with EKVX NSCLC, with ACHN renal, in the assay with A498 renal and with LOX IMVI melanoma was over 150 µg/mL throughout.
For `Cc1ccc2[nH]c(C(=O)NN3C(=O)C(C)SC34CCCC(C)C4)c(-c3ccccc3)c2c1` (stereo unspecified), the GI50 in the assay with DU-145 prostate was over 100 µM; with BT-549 breast, 76.7 µM; in the assay with SNB-75 CNS, 60.1 µM; in the assay on EKVX NSCLC, over 100 µM; in the assay on ACHN renal, over 100 µM; with A498 renal, over 100 µM. In addition, the GI50 was over 100 µM in the assay with LOX IMVI melanoma and 95.5 µM with CAKI-1 renal. Also, the TGI in the assay with DU-145 prostate, in the assay on BT-549 breast, in the assay on SNB-75 CNS, in the assay on EKVX NSCLC, with ACHN renal and in the assay with A498 renal was over 100 µM each time. The TGI in the assay with LOX IMVI melanoma and with CAKI-1 renal was over 100 µM each time.
